Here are results for 13 compounds from patent US8273778B2, “Inhibitors of UDP-galactopyranose mutase thwart mycobacterial growth” (Wisconsin Alumni Research Foundation, priority 2008, dated 2012).

The target of one test is UGMmyco (Mycobacterium tuberculosis, UniProt P9WIQ1). Put plainly: HPLC assay of UGMmyco conversion of UDP-galactofuranose to UDP-galactopyranose (inhibition, kinetics). Type of test: biochemical. The following applies: initial rates at various UDP-Galf, 25 or 50 μM inhibitor, 11 nM UGMmyco, pH 7. The protocol: UGMmyco inhibition was assessed using a previously described HPLC assay to measure the extent of enzymatic conversion of UDP-galactofuranose to UDP-galactopyranose. (Carlson, E. E.; May, J. F.; Kiessling, L. L. Chem. Biol. 2006, 13, 825-837.)
The relative activity of UGMmyco in the presence of DMSO alone was compared to that in the presence of 50 μM of selected aminothiazoles. Enzymatic reaction conditions were as follows: 50 μM UDP-Galf, 4 μM UGMmyco and 20 mM DTT in 4% DMSO v/v. The mean activities of UGMmyco in the presence of the aminothiazoles are presented in order of decreasing binding affinities to highlight the relationship between enzyme inhibition and binding affinity.
The inhibition curves look similar to the binding curves depicted in FIGS. 5A and 5B. […] In the graphs of these figures, conversion is the amount of UDP-Galp formed divided by the amount of total UDP-Gal (UDP-Galp+UDP-Galf). The data were fit to the equation as previously described. (Soltero-Higgin, M.; Carlson, E. E.; Phillips, J. H.; Kiessling, L. L., Identification of inhibitors for UDP-galactopyranose mutase. J. Am. Chem. Soc. 2004, 126, 10532-10533.)
For inhibitor kinetic assays, the initial rate of UGMmyco was determined at various UDP-Galf concentrations in the presence of either DMSO alone (4% v/v), 25 μM inhibitor, or 50 μM inhibitor. […] Product formation was analyzed using a HPLC-based assay. […]

The target in test [1] is T1, UGM from Mycobacterium tuberculosis (UGMmyco) (Mycobacterium tuberculosis, UniProt P9WIQ1). Put plainly: Fluorescence polarization binding / inhibition assay, UGMmyco. The protocol:
(§1) Serial dilutions of dialyzed UGM (maximum concentration was typically 30 μM) was incubated with 15 nM of fluorescent compounds 5a-5f, 6 or 11 in 50 mM sodium phosphate buffer, pH 7.0 at 25° C. Final volumes were 30 μL in 384 well black microtiter plates (Costar). Fluorescence polarization was analyzed using a Wallac EnVision plate reader. Data were fit to y=m1+((m2−m1)*x^m3)/(m4^m3+x^m3); m2=maximum FP signal, m1=minimum FP signal, m3=slope, m4=binding constant (KaleidaGraph, Synergy Software).
The fluorescence polarization inhibition assay was performed as previously described (22). Reactions contained 580 nM UGMmyco or 500 nM UGMkleb and 15 nM of the fluorescent probe 5c in 50 mM sodium phosphate buffer, pH 7.0 at 25° C. Final volumes were 30 μL in 384 well black microtiter plates (Costar). Serial dilutions of UDP, 4d or 7 were added to the wells. Fluorescence polarization was analyzed using a Wallac EnVision plate reader. Data were fit to y=m1+((m2−m1)*x^m3)/(m4^m3+x^m3); m2=maximum FP signal, m1=minimum FP signal, m3=slope, m4=apparent binding constant (KaleidaGraph, Synergy Software). […]. FIGS. 13A and 13B are graphs illustrating determination of Kd for compound II for UGMmyco (FIG. 13A) and UGMkleb (FIG. 13B).
In general terms: Fluorescence polarisation rises when a labelled molecule tumbles more slowly, as on binding a larger partner.

In test [2] the target is T2, UGM from Klebsiella pneumoniae (UGMkleb) (Klebsiella pneumoniae, UniProt Q48485). Put plainly: Fluorescence polarization binding / inhibition assay, UGMkleb. The method, then: as §1
The fluorescence polarization inhibition assay was performed as previously described (22). Reactions contained 580 nM UGMmyco or 500 nM UGMkleb and 15 nM of the fluorescent probe 5c in 50 mM sodium phosphate buffer, pH 7.0 at 25° C. Final volumes were 30 μL in 384 well black microtiter plates (Costar). Serial dilutions of UDP, 4d or 7 were added to the wells. Fluorescence polarization was analyzed using a Wallac EnVision plate reader. Data were fit to y=m1+((m2−m1)*x^m3)/(m4^m3+x^m3); m2=maximum FP signal, m1=minimum FP signal, m3=slope, m4=apparent binding constant (KaleidaGraph, Synergy Software). To determine Kd values, the apparent binding constant was then subjected to Kapp=Kd(1+(I)/KI), where I=concentration of the fluorescent probe and KI=binding affinity of the fluorescent probe to UGM. […] FIGS. 13A and 13B are graphs illustrating determination of Kd for compound II for UGMmyco (FIG. 13A) and UGMkleb (FIG. 13B).

For another test, the system named is UGM. Put plainly: Fluorescence polarization assay, UGM homolog not specified (UGMkleb or UGMmyco). Type of test: binding. The following applies: concentrations up to 34 μM of either UGMmyco or UGMkleb.
Test [3] has as its target T2, UGM from Klebsiella pneumoniae (UGMkleb). The conditions noted are these: previous work; read-out: affinity of the probe for UGMkleb; cited from earlier work.
The target in test [4] is T1, UGM from Mycobacterium tuberculosis (UGMmyco). The conditions noted are these: previous work; read-out: affinity of the probe for UGMmyco; cited from earlier work.
Setting [5] is: Kd (UMGmyco) [μM], Table 2, 50 mM sodium phosphate pH 7.0, 25° C.
The mark [6] stands for this setting: Table 2, 50 mM sodium phosphate pH 7.0, 25° C., read-out: Kd (UMGkleb).
Where [7] appears, read: Table 2, 50 mM sodium phosphate pH 7.0, 25° C., read-out: Kd (UMGmyco).
Setting [8] is: Kd (UMGkleb) [μM], Table 2, 50 mM sodium phosphate pH 7.0, 25° C.
The mark [9] stands for this setting: Table 1, UDP-fluorescein conjugates by linker length n, read-out: UGMmyco Kd.

For orientation: Ki means a dissociation constant, usually derived from enzyme kinetics or from competition with a known ligand. The low end stands for tighter binding, the high end for weaker binding.

Read-outs that look alike come from different tables or passages of the source.

T2 sequence (Q48485 24-384): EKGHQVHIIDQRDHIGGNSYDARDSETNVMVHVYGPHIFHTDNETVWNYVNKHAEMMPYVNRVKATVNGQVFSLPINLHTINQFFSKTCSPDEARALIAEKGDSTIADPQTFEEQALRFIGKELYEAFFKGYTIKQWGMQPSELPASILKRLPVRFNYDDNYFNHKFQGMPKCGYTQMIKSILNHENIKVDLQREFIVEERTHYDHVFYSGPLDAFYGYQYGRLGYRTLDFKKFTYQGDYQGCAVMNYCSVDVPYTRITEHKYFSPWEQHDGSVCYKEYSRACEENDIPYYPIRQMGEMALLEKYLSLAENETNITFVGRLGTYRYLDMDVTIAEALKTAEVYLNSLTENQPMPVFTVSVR
T1 sequence (P9WIQ1 whole entry): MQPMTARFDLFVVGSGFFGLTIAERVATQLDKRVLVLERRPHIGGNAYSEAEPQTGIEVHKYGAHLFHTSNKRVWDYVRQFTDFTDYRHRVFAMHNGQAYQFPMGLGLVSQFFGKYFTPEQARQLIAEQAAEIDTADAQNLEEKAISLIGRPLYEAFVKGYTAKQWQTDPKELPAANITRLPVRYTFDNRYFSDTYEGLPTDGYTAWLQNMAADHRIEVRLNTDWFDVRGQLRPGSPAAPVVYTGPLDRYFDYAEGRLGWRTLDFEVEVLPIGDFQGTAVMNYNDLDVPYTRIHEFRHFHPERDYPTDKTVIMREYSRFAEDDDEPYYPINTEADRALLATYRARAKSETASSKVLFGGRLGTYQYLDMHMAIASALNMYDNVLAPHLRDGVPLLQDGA
Sequence of UGMmyco (P9WIQ1 whole entry): as above

`O=C(O)C(Cc1ccc(Cl)cc1)Nc1nc(-c2ccc(Cl)cc2Cl)cs1` (stereo not drawn): the Ki at UGMmyco amounted to 5300 nM.

Take `O=C(O)c1cc(NC(=S)NCCOP(=O)(O)OP(=O)(O)OCC2OC(n3ccc(=O)[nH]c3=O)C(O)C2O)ccc1-c1c2ccc(=O)cc-2oc2cc(O)ccc12` (stereo not drawn) [Compound 5a, UDP-ethanolamine-fluorescein conjugate]: the Kd in test [1] (setting [5]) is above 30 µM; in test [1] (UGMmyco Kd (μM), Table 1, UDP-fluorescein conjugates by linker length n) it was above 30 µM; in test [2] (setting [6]), above 30 µM.

For `O=C(O)c1cc(NC(=S)NCCOCCOCCOP(=O)(O)OP(=O)(O)OCC2OC(n3ccc(=O)[nH]c3=O)C(O)C2O)ccc1-c1c2ccc(=O)cc-2oc2cc(O)ccc12` (stereo not drawn) [Compound 5f, UDP-3,6-dioxa-octanolamine-fluorescein conjugate], the figures for the Kd in test [1] (setting [5]) and in test [2] (setting [6]) were 0.575 ± 0.016 µM and 0.767 ± 0.017 µM, respectively. Besides, the “fold lower affinity than compound 5d” value in test [1] (UGMmyco, relative to 5d (eight methylene linker)) is “more than 10 fold”. Moreover, the “fold greater affinity than UDP” value in test [1] (UGMmyco, relative to UDP) amounted to 20 fold.

As for `O=C(O)c1cc(NC(=S)NCCOCCOCCOCCOP(=O)(O)OP(=O)(O)OCC2OC(n3ccc(=O)[nH]c3=O)C(O)C2O)ccc1-c1c2ccc(=O)cc-2oc2cc(O)ccc12` (stereo not drawn) [Compound 5g, UDP-3,6,9-trioxa-undecanolamine-fluorescein conjugate], the results for the Kd in test [1] (setting [5]) and in test [2] (setting [6]) were 1.07 ± 0.1 µM and 1.2 ± 0.14 µM, respectively.

As for `O=C(O)c1cc(NC(=S)NCCCCCCCCO)ccc1-c1c2ccc(=O)cc-2oc2cc(O)ccc12` [Compound 6, Octanolamine-fluorescein conjugate], the Kd in test [1] (setting [7]) and in test [2] (setting [8]) was above 30 µM in each case. Also, in the test with UGM, the “binding of fluorophore alone” value is “no binding was observed”.

Turning to `O=c1ccn(C2OC(COP(=O)([O-])OP(=O)(O)OCCCCCCCCNC(=S)Nc3cccc4ccccc34)C(O)C2O)c(=O)[nH]1.[Na+]` (stereo not drawn) [Compound 7, UDP-octanolamine-naphthyl conjugate], the Kd in test [1] (setting [5]) was found to be 0.61 ± 0.109 µM; in test [2] (setting [6]) it was 0.583 ± 0.036 µM.

Turning to `O=C(O)c1cc(NC(=S)NCCCCCCCCc2ccc(-c3csc(NC(Cc4ccc(Cl)cc4)C(=O)O)n3)cc2)ccc1-c1c2ccc(=O)cc-2oc2cc(O)ccc12` (stereo not drawn) [Compound 11, Aminothiazole-fluorescein conjugate], the Kd in test [1] (setting [7]) came to 0.295 ± 0.066 µM; in test [1] (read-out: Kd / affinity for UGMmyco), 0.3 µM; in test [2] (setting [8]) it was 0.385 ± 0.035 µM; in test [2] (Kd / affinity for UGMkleb), 0.38 µM.

Turning to `O=c1ccn([C@@H]2O[C@H](COP(=O)(O)OP(=O)(O)O)[C@@H](O)[C@H]2O)c(=O)[nH]1` [UDP, uridine 5′-diphosphate, reference compound], the Kd amounted to 15.1 ± 1.7 µM in test [1] (setting [5]), 15 µM in test [1] (Kd / affinity for UGMmyco), 26 ± 1.7 µM in test [2] (setting [6]) and 26 µM in test [2] (read-out: Kd / affinity for UGMkleb).

Consider “UDP-butanolamine-fluorescein conjugate [Compound 5b]”, for which the Kd in test [1] (setting [9]) is 2.5 µM; in test [1] (setting [7]) it was 2.51 ± 0.28 µM; in test [2] (setting [6]) it was 1.94 ± 0.15 µM.

As to “UDP-decanolamine-fluorescein conjugate [Compound 5e]”, the Kd in test [1] (setting [9]) worked out at 0.064 µM; in test [1] (setting [7]), 0.064 ± 0.004 µM; in test [2] (setting [6]), 0.07 ± 0.002 µM.

For “UDP-hexanolamine-fluorescein conjugate [Compound 5c]”, the Kd in test [1] (setting [9]) is 0.17 µM; in test [1] (setting [7]), 0.166 ± 0.014 µM; in test [2] (setting [6]) it was 0.193 ± 0.011 µM; in test [3], 100 nM; in test [4], 160 nM.

On to “UDP-octanolamine-fluorescein conjugate [Compound 5d]”, for which the results for the Kd in test [1] (setting [9]), in test [1] (setting [7]) and in test [2] (setting [6]) were 0.054 µM, 0.054 ± 0.006 µM and 0.045 ± 0.002 µM, respectively.

As for “Uridine 5′-diphosphooctanolamine, ammonium salt [Compound 4d]”, the Kd in test [1] (setting [7]) stood at 32 ± 3.4 µM; in test [2] (setting [6]) it was 37.7 ± 1.5 µM.
